The conditions of data set [1]: rhesus monkeys, 10 mg/kg i.v. daily for one month, within two months; indirect ELISA. Here is the method: After incubation at 4 °C for 2 h and washes with PBS-T for three times, we added the serially 10-fold diluted plasma of the PBS- or peptide-treated rhesus monkeys. Goat Anti-Monkey IgG H&L (HRP) (Abcam) were incubated for 1 h at 37 °C and washed for five times.

The next data set has as its target T1, gp41 NHR peptide N36 (Human immunodeficiency virus type 1 group M subtype B, UniProt P04578).
T1 construct: purchased KareBay Biochem, Inc; host or cells: solid-phase chemical synthesis
As to the kind of experiment: Thermostability of 6-HB formed with N36, by CD. Format: binding, HIV-1. The following applies: CD at 222 nm, 20 to 98 °C at 1.2 °C/min, 10 μM peptide in PBS. How it is done: CD spectroscopy was conducted as previously described. Briefly, a CHR peptide was incubated with NHR peptide N36 at concentration of 10 μM at 37 °C for 30 min. The separated C-peptides were also measured. The CD spectra were measured on a Jasco spectropolarimeter (model J-815; Jasco, Inc., Easton, MD, USA), using a 1-nm bandwidth with a 1-nm step resolution from 195 to 260 nm at room temperature. The spectra were corrected by subtraction of PBS. The α-helical content was calculated from the CD signal by dividing the mean residue ellipticity [θ] at 222 nm by the value expected for 100% helix formation (-33,000 deg·cm^2·dmol^-1). The thermal denaturation experiment was performed by monitoring the changes in ellipticity [θ] at 222 nm at increasing temperature from 20 to 98 °C at a rate of 1.2 °C/min; data were acquired at a 1-nm bandwidth at 222 nm at a frequency of 0.25 Hz. The melting curve was smoothed, and the midpoint of the thermal unfolding transition (Tm) value was taken as the maximum of the derivative d[θ] 222/dt. Tm value was detected at a peptide concentration of 10 μM in PBS buffer.

The subject of data set [2] is HIV-1 IIIB (subtype B, X4). Format: cell-based. Particulars: for IC50: IIIB (subtype B, X4).
Description: (§2) Briefly, 1×10^5/mL MT-2 or M7 cells were infected with different HIV-1 viruses at 100 TCID50 (50% tissue culture infective dose) in the presence or absence of peptides at graded concentrations overnight. Then the culture supernatants were replaced with equal volume of fresh medium. On the fourth day post-infection, supernatants were collected and mixed with equal volume of 5% Triton X-100. […] The IC50 values were calculated with CalcuSyn software [35–36], and inhibition curves of best fit were generated with GraphPad Prism.
For a further data set, the system named is human IgG. Briefly: ELISA binding to human IgG. Particulars: for binding to human IgG: ELISA, dose-dependent, triplicate. Here is the method: Next, different concentrations of human or rhesus monkey IgG were added to the peptide-coated plate and incubated at 37 °C for 1 h. Rabbit anti-human IgG-HRP (1:3000 diluted) was added to each well and incubated at 37 °C for another 1 h. Afterwards, the bound IgG-HRP was detected by addition of the HRP substrate TMB. The reaction was terminated by addition of 1 M H2SO4 50 μL. Absorbance at 450 nm was measured using an ELISA reader (Ultra 384; Tecan, Research Triangle Park, NC).
The data was fitted to the “one site – specific binding” using GraphPad Prism. The standard error (SE) is given for a sample size of three replicates per data point.

For data set [3] the following is noted: rhesus monkeys; for t1/2: plasma, 10 mg/kg i.v., active peptide concentration estimated from ex vivo anti-HIV-1 IIIB activity (DF-IC50) and in vitro IC50, MODFIT; for AUC(0-t) / Cmax / MRT 0-inf_obs / Tmax: concentration estimated from ex vivo anti-HIV-1 activity.
Another data set addresses rhesus monkey IgG. As to the kind of experiment: Isothermal titration calorimetry (ITC). Format: binding. Particulars: 300 μM peptide injected into 30 μM rhesus monkey IgG, PBS, 25 °C. Here is the method: ITC assay was performed with an ITC microcalorimeter instrument (NANO ITC, TA Instruments, Lindon, UT) as described previously. In brief, 300 μM peptides were dissolved in PBS and injected into the chamber containing 30 μM of rhesus monkey IgG. The experiments were carried out at 25 °C. The time between injections was 300 s, and the stirring speed was 300 rpm. The heats of dilution were determined in control experiments by injecting peptides into PBS and then subtracting from the heats produced in the corresponding peptide-IgG binding experiments. Data acquisition and analysis were performed using the Origin software, and the best fitting curves were generated with GraphPad Prism.

A short description of another data set: in vivo. How it is done: The samples were then centrifuged (3200 rpm for 10 min at 4 °C), and plasma was aliquoted and kept frozen until analysis.
After being coated, the plate was washed three times with PBS-T to remove the excess antibody. The remaining active sites on the plate were blocked by the addition of 150 μL 2% milk for 2 h at 37 °C. […] Then, HRP-labeled rabbit anti-mouse IgG (Sigma, USA) incubated at 37 °C for 1 h. The substrate TMB reagent were added and incubated for 5 min, resulting in the development of a blue color. Color development was stopped by the stop solution (1M H2SO4 50 μL/well). Absorbance at 450 nm was determined by an ELISA reader (Ultra 384, Tecan; Tecan, Research Triangle Park, NC).

Data set [4] concerns HIV-1 Bal (subtype B, R5). In kind it is cell-based. The following applies: for IC50: Bal (subtype B, R5).
Description: as §2
For the next data set, the system named is MT-2 cells. Briefly: Cytotoxicity assay (CCK-8). Particulars: for in vitro cytotoxicity to MT-2 cells: up to 5 μM, 48 h, CCK-8, triplicate. In kind it is cell-based. How it is done:
(§1) The potential cytotoxicity of peptides on MT-2 and M7 cells was measured by using the Cell Counting Kit-8 according to the manufacturer’s instructions (CCK-8, Dojindo Laboratories, Kumamoto, Japan). Briefly, 100 μL of a peptide at graded concentrations were added to equal volumes of cells (10^4 cells/well) in a 96-well plate. Cell viability was evaluated using the CCK-8 kit after incubation at 37 °C for 2 days. Incubation with CCK-8 reagents at 37 °C for another 4 h, the absorbance at 450 nm was measured with an ELISA reader, and the percentage of cytotoxicity was calculated.

In another data set the test system is M7 cells. Briefly: Cytotoxicity assay (CCK-8). Particulars: up to 5 μM, 48 h, triplicate. In kind it is cell-based. Here is the method: as §1
Setting [5] is: rhesus monkey, plasma, iv, 10 mg/kg.

Read-outs that look alike come from different tables or passages of the source. Positions of bridges follow the written chain, without caps; N, C: chain ends. Residues, ends and D or L forms follow the SMILES beside them. No end group written: not given here.

T1 sequence (P04578 546-581): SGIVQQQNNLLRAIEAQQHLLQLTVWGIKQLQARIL

The term IC50 denotes the concentration needed to halve the response being measured. One may read the Kd as the free concentration of one partner at which half of the binding sites on the other are occupied at equilibrium, for simple one-to-one binding. For orientation: AUC(0-t) means exposure summed from dosing to a finite time, without extrapolation to infinity. The term Cmax denotes the peak of the concentration-time curve. The Tmax is the time at which the peak concentration occurs. Usually MRT stands for the average time that molecules of a dose stay in the body. What is called half-life is the time needed for the level to fall by half in the phase considered. As to `CC[C@H](C)[C@H](NC(=O)[C@H](CC(C)C)NC(=O)[C@H](CCC(=O)O)NC(=O)[C@H](CCC(=O)O)NC(=O)[C@@H](NC(=O)[C@H](CCCCN)NC(=O)[C@H](CCCCN)NC(=O)[C@@H](NC(=O)[C@H](Cc1ccc(O)cc1)NC(=O)[C@H](CCC(=O)O)NC(=O)[C@H](CCC(=O)O)NC(=O)[C@@H](NC(=O)[C@H](CCCCN)NC(=O)[C@H](CCCCN)NC(=O)[C@H](CC(=O)O)NC(=O)[C@H](Cc1c[nH]c2ccccc12)NC(=O)[C@H](CCC(=O)O)NC(=O)[C@H](CCC(=O)O)NC(=O)[C@H](Cc1c[nH]c2ccccc12)NC(=O)[C@@H](NC(=O)[C@H](CCSC)NC(=O)[C@@H](NC(=O)[C@@H]1CSSC[C@H](NC(=O)[C@@H](N)CC(=O)O)C(=O)N[C@@H](C)C(=O)N[C@@H](Cc2c[nH]c3ccccc23)C(=O)N[C@@H](Cc2c[nH]cn2)C(=O)N[C@@H](CC(C)C)C(=O)NCC(=O)N[C@@H](CCC(=O)O)C(=O)N[C@@H](CC(C)C)C(=O)N[C@@H](C(C)C)C(=O)N[C@@H](Cc2c[nH]c3ccccc23)C(=O)N1)[C@@H](C)O)[C@@H](C)O)[C@@H](C)CC)[C@@H](C)O)[C@@H](C)CC)C(=O)N[C@@H](CCCCN)C(=O)N[C@@H](CCCCN)C(=O)N[C@@H](CO)C(=O)O` [IBP-CP24] (H-DCAWHLGELVWCTMTWEEWDKKIEEYTKKIEELIKKS-OH; disulfide 2-12; N-terminus and C-terminus assumed), the “peptide-specific antibodies in plasma” value in data set [1] is recorded as “no significant detectable antibodies”. In addition, on gp41 NHR peptide N36, the “Tm of the 6-HB formed with N36” value amounted to 85.25 °C. In data set [2], the “fold more potent than CP24 against HIV-1 IIIB” value is “about 2.3 fold” and the IC50 was determined as 0.0059 µM. Also, in the data set with human IgG, the “binding to human IgG” value is given as “higher binding affinity with human IgG than IBP alone”. On human IgG (read-out: Estimated Kd of binding to human IgG, ELISA on peptide-coated plate, one site specific binding fit, ± SE, three replicates per point), the Kd is 0.177 µM. In addition, in data set [3], the t1/2 was 44.81 h, the “AUC(0-t)” value was 3610.65 µg·h/mL, the Cmax was 76.23 µg/mL and the “MRT 0-inf_obs” value is reported as 61.39 h. Further, in data set [3], the time to peak (Tmax) was 4 h. Besides, the Kd at rhesus monkey IgG stood at 0.946 µM. Further, the “fold longer half-life than CP24” value in the data set “in vivo” (rhesus monkey plasma, 10 mg/kg i.v.) stood at 26 fold. In the data set “in vivo” (setting [5]), the AUC(0-t) was 3430 µg·h/mL, the highest level (Cmax) was 52.7 µg/mL, the MRT is 64.4 h and the half-life is 46.1 h. In the data set “in vivo” (rhesus monkeys, 10 mg/kg i.v.), the “fold higher AUC 0-t than CP24” value is reported as “about 18 fold”. Moreover, the Tmax in “in vivo” (rhesus monkeys, single i.v. 10 mg/kg, sandwich ELISA, CP24 n = 2, IBP-CP24 n = 3) was 4 h. For the same compound, in data set [4], the “fold more potent than CP24 against HIV-1 Bal” value was roughly 2.9 fold and half-maximal inhibition (IC50) required 0.00257 µM. In addition, the “non-cytotoxic concentration fold higher than IC50 for HIV-1 inhibition” value with MT-2 cells (5 μM versus IC50, MT-2 and M7 cells) was “more than 800 fold”. Further, the “in vitro cytotoxicity to MT-2 cells” value with MT-2 cells is given as “no significant in vitro cytotoxicity”. In the data set on M7 cells, the “in vitro cytotoxicity to M7 cells” value was “no significant in vitro cytotoxicity”.
Regarding “MTWEEWDKKIEEYTKKIEELIKKS [CP24, reference compound]”, in data set [1], the “peptide-specific antibodies in plasma” value is given as “no significant detectable antibodies”. Moreover, the “Tm of the 6-HB formed with N36” value on gp41 NHR peptide N36 is 78.69 °C. The same compound yielded an IC50 in data set [2] of 0.0195 µM. The “binding to human IgG” value with human IgG is “could not bind with human IgG”. Besides, in [3], the t1/2 is on record as 1.37 h, the “AUC(0-t)” value was 237.88 µg·h/mL, the Cmax is 77.82 µg/mL and the “MRT 0-inf_obs” value is 3.17 h. In data set [3], the Tmax was 2 h. This compound gave a Kd on rhesus monkey IgG of 1000 µM. Also, in “in vivo” (setting [5]), the AUC(0-t) worked out at 180 µg·h/mL, the Cmax stood at 23.6 µg/mL, the MRT is 4.47 h and the Tmax was 2 h. Moreover, in “in vivo” (setting [5]), the half-life is 1.69 h. For the same compound, in [4], the IC50 amounted to 0.0101 µM. Besides, in the data set with MT-2 cells, the “in vitro cytotoxicity to MT-2 cells” value was “no in vitro cytotoxicity”. For the same compound, the “in vitro cytotoxicity to M7 cells” value in the data set on M7 cells is on record as “no in vitro cytotoxicity”.

The values are drawn from paper PMC6894747 (PLoS Pathogens, 2019).
